Test results taken from publication PMC9738727, “Purification and Characterization of Novel Anti-MRSA Peptides Produced by Brevibacillus sp. SPR-20” (Molecules, 2022).
Ends that are not written are not given here.

Tests used:
[1] = system: MRSA isolate 2468; experiment: Agar well diffusion, arbitrary activity of purification fractions; format: cell-based, Staphylococcus aureus; details: 2-fold dilutions, AU per mg total protein
Description: Eight milliliters of the SPR-20 starter culture was added to 392 mL of Luria–Bertani (LB) broth (Titan Biotech Ltd., Rajasthan, India) in a 2 L flask. The culture was incubated at 30 °C and 150 rpm for 24 h before the crude supernatant was collected by centrifugation at 10,000× g and 4 °C for 15 min. Ammonium sulfate at 75% of saturation was added to the supernatant, and the precipitate was desalted by dialysis using a 3.5 kDa molecular weight cut-off (MWCO) SnakeSkin membrane (Pierce, Rockford, IL, USA) in the dialysis buffer (50 mM ammonium acetate pH 5.0 and 50 mM NaCl) at 4 °C for 16 h. The sample solution was purified by a HiTrap SP column under the elution gradient of buffer A (50 mM ammonium acetate pH 5.0 and 50 mM NaCl) and buffer B (50 mM ammonium acetate pH 5.0 and 1 M NaCl). The flow rate was set at 3 mL/min, and the wavelength was monitored at 214 nm. […] The peak was detected at 214 nm. […] The active fractions obtained from each purification step were prepared at different concentrations using 2-fold dilution, and the antimicrobial activity against MRSA isolate 2468 was determined by agar well diffusion assay.
The antimicrobial activity was measured by an agar well diffusion test with some modified methods. […] Each experiment was performed in three independent replicates, and the inhibition zone was measured and expressed as mean ± SD.

[2] = system: MRSA isolate 2468; experiment: Thermal, surfactant and pH stability, remaining activity by agar well diffusion; format: physicochemical, Staphylococcus aureus; details: P1 15 μg/mL, vancomycin 300 μg/mL, mean ± SD, n=3
Description: (§1) The antimicrobial activity was measured by an agar well diffusion test with some modified methods. In brief, single colonies of the tested strains were suspended in 0.85% NaCl, and then the OD at 625 nm was adjusted to 0.1. The cell suspensions were spread on MH agar, and the tested samples (100 μL) were introduced into each well before incubation at 37 °C for 24 h. Each experiment was performed in three independent replicates, and the inhibition zone was measured and expressed as mean ± SD.
(§2) The stability of the anti-MRSA peptide against several conditions was studied. […] The sensitivity of the peptide sample to proteolytic enzymes was investigated by incubating the sample with proteinase K, trypsin, and α-chymotrypsin (1 mg/mL) for 1 h. Surfactant compatibility of the substance was examined by incubating the sample with 1% SDS and 1% Triton X-100 for 1 h (AppliChem GmbH, Darmstadt, Germany). The acid and base hydrolysis property of the substance was assessed by pH adjustment to 2–14 for 1 h before the samples were neutralized to pH 7. After all treatments, the antimicrobial assay by agar well diffusion against S. aureus TISTR 517 and MRSA isolate 2468 was performed in three independent experiments. The stability profiles were presented as the percentage of activity relative to the untreated condition (mean ± SD), and significant difference was determined by the Student’s t-test at a p-value < 0.05.

[3] = system: S. aureus TISTR 517; experiment: as above; format: physicochemical, Staphylococcus aureus; details: for % Remaining Activity: P1 15 μg/mL, vancomycin 300 μg/mL, mean ± SD, n=3
Description: as §1, §2

[4] = system: MRSA isolate 2468; experiment: Cell lysis (OD 625 nm), leakage of genetic materials (A260) and viable count; format: cell-based, Staphylococcus aureus; details: for cell lysis (OD 625 nm reduction): within 1 h, PBS pH 7.4 + 4% CAMHB, mean ± SD, triplicate
Description: (§3) The lysis of bacterial cells was monitored by measuring the OD reduction at 625 nm, whereas the leakage of genetic material was evaluated by measuring the absorbance at 260 nm. Briefly, the bacterial colonies were collected from MH agar and then washed with PBS pH 7.4 three times. The OD at 625 nm of the washed cells was adjusted to 0.35 with PBS pH 7.4 supplemented with an incomplete medium (4% CAMHB) before the cells were transferred to a 96-well plate (100 μL/well). […] For each treatment condition at different time intervals, the reduction in OD at 625 nm was determined, and the supernatant of the treated samples was collected to measure the absorbance at 260 nm. The experiment was performed in triplicate, and the results were expressed as mean ± SD. Two-way ANOVA and post hoc Tukey’s test (p-value < 0.05) were used to determine the significance of differences between treated and non-treated samples.

[5] = system: S. aureus TISTR 517; experiment: as above; format: cell-based, Staphylococcus aureus
Description: as §3

[6] = system: human erythrocytes; experiment: Hemolysis; format: cell-based; details: highest concentration with hemolysis below 10% divided by MIC
Description: Human blood (5 mL) from a healthy volunteer was collected in an EDTA tube. The erythrocytes were centrifuged at 700× g for 8 min and washed with PBS pH 7.4 three times. The erythrocytes were diluted with PBS pH 7.4 to reach a 0.5% v/v concentration. The suspension of erythrocytes (50 μL) was transferred to each well in a 96-well plate. The anti-MRSA peptide was dissolved and prepared by performing a 2-fold serial dilution with PBS pH 7.4 before the samples (50 μL) were added to the wells to achieve the final concentrations of 0.25–64 μg/mL. The reactions were incubated at 37 °C for 1 h, and the supernatant was collected by centrifugation at 1000× g for 10 min. The release of hemoglobin was monitored by measuring the absorbance at 540 nm. PBS pH 7.4 and 1% Triton X-100 were used as the negative and positive controls, respectively. The relative hemolysis was determined by normalizing the absorbance of the sample by that of the positive control. Each experiment was performed in three replications.

[7] = 60 °C, 1 h, % of untreated sample
[8] = 80 °C, 1 h, % of untreated sample
[9] = 100 °C, 1 h, % of untreated sample
[10] = […], 15 psi, 15 min (autoclave), % of untreated sample
[11] = pH 2, 1 h, then neutralized to pH 7
[12] = pH 4, 1 h, then neutralized to pH 7
[13] = pH 5, 1 h, then neutralized to pH 7
[14] = pH 6, 1 h, then neutralized to pH 7
[15] = pH 8, 1 h, then neutralized to pH 7
[16] = pH 9, 1 h, then neutralized to pH 7
[17] = pH 11, 1 h, then neutralized to pH 7
[18] = pH 12, 1 h, then neutralized to pH 7
[19] = pH 13, 1 h, then neutralized to pH 7
[20] = pH 14, 1 h, then neutralized to pH 7
[21] = sample + 1% SDS, 1 h, % of untreated sample
[22] = sample + 1% Triton X-100, 1 h, % of untreated sample

VVVNVLVKVLPPPVV [Peptide P1]
Specific Activity [1]: 1694 AU/mg | % Remaining Activity [2, 7]: 100.00 ± 0.79% | % Remaining Activity [2, 8]: 99.08 ± 0.00% | % Remaining Activity [2, 9]: 98.62 ± 0.79% | % Remaining Activity [2, 10]: 98.62 ± 0.79% | % Remaining Activity [2, 11]: 97.57 ± 1.46% | % Remaining Activity [2, 12]: 99.03 ± 1.46% | % Remaining Activity [2, 13]: 97.09 ± 1.68% | % Remaining Activity [2, 14]: 97.57 ± 3.85% | % Remaining Activity ([2]; pH 7, 1 h): 97.57 ± 5.25% | % Remaining Activity [2, 15]: 97.09 ± 2.22% | % Remaining Activity [2, 16]: 98.03 ± 1.71% | % Remaining Activity [2, 17]: 98.03 ± 2.26% | % Remaining Activity [2, 18]: 97.54 ± 0.00% | % Remaining Activity [2, 19]: 99.51 ± 0.85% | % Remaining Activity [2, 20]: 100.00 ± 3.08% | % Remaining Activity [2, 21]: 117.13 ± 1.60 % | % Remaining Activity [2, 22]: 115.74 ± 0.80 % | % Remaining Activity [3, 7]: 100.49 ± 0.84% | % Remaining Activity [3, 8]: 100.00 ± 0.84% | % Remaining Activity [3, 9]: 100.00 ± 0.84% | % Remaining Activity [3, 10]: 98.54 ± 1.69% | % Remaining Activity [3, 11]: 98.48 ± 3.17% | % Remaining Activity [3, 12]: 97.97 ± 5.77% | % Remaining Activity [3, 13]: 97.46 ± 2.64% | % Remaining Activity [3, 14]: 97.97 ± 3.17% | % Remaining Activity ([3]; pH 7, 1 h): 97.97 ± 1.76% | % Remaining Activity [3, 15]: 102.54 ± 3.17% | % Remaining Activity [3, 16]: 100.00 ± 1.49% | % Remaining Activity [3, 17]: 98.01 ± 2.28% | % Remaining Activity [3, 18]: 96.52 ± 2.28% | % Remaining Activity [3, 19]: 98.51 ± 1.49% | % Remaining Activity [3, 20]: 101.00 ± 1.72% | % Remaining Activity [3, 21]: 114.49 ± 3.53 % | % Remaining Activity [3, 22]: 125.23 ± 2.92 % | activity remaining under several stress conditions ([3]; text summary of Table 6, both test strains): over 90% | increase of genetic content in the supernatant (A260) ([4]; 30 min, 1×-4× MIC): 1.15–1.47 times | inhibition by viable cell count ([4]; 24 h, 1× MIC): 34.46 ± 0.64% | increase of genetic release (A260) ([4]; 24 h, 1×-4× MIC): 1.81–2.07 times | inhibition by viable cell count ([4]; 24 h, 2× MIC): 64.47 ± 3.56% | inhibition by viable cell count ([4]; 24 h, 4× MIC): 96.13 ± 6.70% | cell lysis (OD 625 nm reduction) ([4]; 1× MIC): 12.68 ± 13.57% | cell lysis (OD 625 nm reduction) ([4]; 2× MIC): 26.13 ± 9.48% | cell lysis (OD 625 nm reduction) ([4]; 4× MIC): 20.75 ± 2.75% | increase of genetic content in the supernatant (A260) ([5]; 30 min, 1×-4× MIC): 1.09–1.60 times | inhibition by viable cell count ([5]; 24 h, 1× MIC): 8.60 ± 0.26% | cell lysis ([5]; 24 h, 1×-4× MIC): more than 39.67% | increase of genetic release (A260) ([5]; 24 h, 1×-4× MIC): 2.05–2.29 times | inhibition by viable cell count ([5]; 24 h, 2× MIC): 67.63 ± 1.96% | inhibition by viable cell count ([5]; 24 h, 4× MIC): 94.35 ± 9.78% | cells destroyed (OD 625 nm reduction) ([5]; first hour, 1× MIC, PBS pH 7.4 + 4% CAMHB, mean ± SD, triplicate): 21.08 ± 1.11% | therapeutic index of hemolysis (TIhemolysis) [6]: 16
